Experimental data taken from ChEMBL document CHEMBL1201862, “PubChem BioAssay data set” (2004).
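Exposure lasted 48 hours, with cells grown in 96-well plates and compounds tested at five concentrations. Abbreviation: GI50, concentration required for 50% inhibition of growth.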 The source made the active and inactive calls. No stated cut-off is given here; in the data, active = GI50 up to about 1.1 µM and inactive = higher.

How the values were obtained:
Experiment in all cases: NCI-60 cell line screen, 48 h
DU-145 = tested on: DU-145
UO-31 = tested on: UO-31
SK-OV-3 = tested on: SK-OV-3
SK-MEL-5 = tested on: SK-MEL-5
NCI-H226 = tested on: NCI-H226
COLO 205 = tested on: COLO 205
OVCAR-5 = tested on: OVCAR-5
HL-60 = tested on: HL-60
RXF 393 = tested on: RXF 393
NCI-H23 = tested on: NCI-H23
SW-620 = tested on: SW-620
HOP-92 = tested on: HOP-92
SK-MEL-28 = tested on: SK-MEL-28
Malme-3M = tested on: Malme-3M
BT-549 = tested on: BT-549
CAKI-1 = tested on: CAKI-1
HCT-15 = tested on: HCT-15
NCI-H460 = tested on: NCI-H460
NCI-H522 = tested on: NCI-H522

SMILES	GI50 (DU-145)	GI50 (UO-31)	GI50 (SK-OV-3)	GI50 (SK-MEL-5)	GI50 (NCI-H226)	GI50 (COLO 205)	GI50 (OVCAR-5)	GI50 (HL-60)	GI50 (RXF 393)	GI50 (NCI-H23)	GI50 (SW-620)	GI50 (HOP-92)	GI50 (SK-MEL-28)	GI50 (Malme-3M)	GI50 (BT-549)	GI50 (CAKI-1)	GI50 (HCT-15) [µM]	GI50 (NCI-H460)	GI50 (NCI-H522)
Cc1ccsc1/C=N/Nc1ncccn1	> 100 µM (inactive)	> 100 µM (inactive)	> 100 µM (inactive)	> 100 µM (inactive)	> 100 µM (inactive)	> 100 µM (inactive)	> 100 µM (inactive)	> 100 µM (inactive)	> 100 µM (inactive)	> 100 µM (inactive)	> 100 µM (inactive)	> 100 µM (inactive)	> 100 µM (inactive)	> 100 µM (inactive)	> 100 µM (inactive)	> 100 µM (inactive)	> 100	–	–
BrCC[P+](c1ccccc1)(c1ccccc1)c1ccccc1	6.49 µM (inactive)	4.75 µM (inactive)	24.5 µM (inactive)	8.11 µM (inactive)	–	2.87 µM (inactive)	10.8 µM (inactive)	2.25 µM (inactive)	2.43 µM (inactive)	–	2.51 µM (inactive)	3.57 µM (inactive)	4.89 µM (inactive)	–	14.9 µM (inactive)	4.37 µM (inactive)	32.7	19.5 µM (inactive)	–
O=c1cc(-c2cccnc2)[nH]c2cc3c(cc12)OCO3	33 µM (inactive)	44.4 µM (inactive)	> 20.9 µM (inactive)	2.73 µM (inactive)	18.8 µM (inactive)	13.9 µM (inactive)	> 100 µM (inactive)	7.35 µM (inactive)	9.02 µM (inactive)	10.3 µM (inactive)	6.38 µM (inactive)	13.5 µM (inactive)	6.18 µM (inactive)	3.15 µM (inactive)	30.3 µM (inactive)	–	3.9	10.8 µM (inactive)	–
CCN(CC)CCCC(C)Nc1cc(/C=C/c2ccc(Cl)cc2)nc2cc(N(C)C)ccc12 (stereo not drawn)	1.66 µM (inactive)	2.04 µM (inactive)	–	2.01 µM (inactive)	3.71 µM (inactive)	–	1.94 µM (inactive)	1.72 µM (inactive)	1.61 µM (inactive)	1.76 µM (inactive)	1.33 µM (inactive)	1.74 µM (inactive)	1.74 µM (inactive)	–	1.65 µM (inactive)	–	1.67	1.67 µM (inactive)	–
CSc1ccc(/C=C2\N=C(c3ccccc3)N(c3nc4cc(C)c(C)cc4s3)C2=O)cc1	49.7 µM (inactive)	28.9 µM (inactive)	46.5 µM (inactive)	21.4 µM (inactive)	–	35.2 µM (inactive)	26.2 µM (inactive)	20.9 µM (inactive)	25 µM (inactive)	–	17.9 µM (inactive)	13.5 µM (inactive)	49.7 µM (inactive)	–	28.2 µM (inactive)	53 µM (inactive)	40.7	36.3 µM (inactive)	–
CN1CCN(c2n[nH]c(=O)c3c2nnn3Cc2ccccc2)CC1	> 100 µM (inactive)	71.6 µM (inactive)	–	> 100 µM (inactive)	–	> 100 µM (inactive)	–	> 100 µM (inactive)	86.7 µM (inactive)	> 100 µM (inactive)	–	17.2 µM (inactive)	> 100 µM (inactive)	> 100 µM (inactive)	41.5 µM (inactive)	> 100 µM (inactive)	> 100	> 100 µM (inactive)	–
O=c1ccn(C2OC(CN(O)CCC3C(CO)OC(n4ccc(=O)[nH]c4=O)C3O)C(O)C2O)c(=O)[nH]1 (stereo not drawn)	> 100 µM (inactive)	> 100 µM (inactive)	> 100 µM (inactive)	> 100 µM (inactive)	> 100 µM (inactive)	> 100 µM (inactive)	> 100 µM (inactive)	> 100 µM (inactive)	> 100 µM (inactive)	> 100 µM (inactive)	> 100 µM (inactive)	> 100 µM (inactive)	> 100 µM (inactive)	> 100 µM (inactive)	> 100 µM (inactive)	> 100 µM (inactive)	> 100	> 100 µM (inactive)	–
COc1ccc2c(c1)C(N)=C(Cc1ccncc1)C2=O	> 100 µM (inactive)	46 µM (inactive)	> 100 µM (inactive)	> 100 µM (inactive)	–	> 100 µM (inactive)	–	49.4 µM (inactive)	> 100 µM (inactive)	> 100 µM (inactive)	> 100 µM (inactive)	31.4 µM (inactive)	> 100 µM (inactive)	> 100 µM (inactive)	> 100 µM (inactive)	> 100 µM (inactive)	> 100	> 100 µM (inactive)	89.7 µM (inactive)
COC(=O)C(NC(=O)c1ccccc1)c1ccco1 (stereo not drawn)	> 100 µM (inactive)	> 100 µM (inactive)	> 100 µM (inactive)	> 100 µM (inactive)	> 100 µM (inactive)	–	> 100 µM (inactive)	> 100 µM (inactive)	> 100 µM (inactive)	> 100 µM (inactive)	> 100 µM (inactive)	> 100 µM (inactive)	> 100 µM (inactive)	> 100 µM (inactive)	> 100 µM (inactive)	–	> 100	> 100 µM (inactive)	–
Clc1ccc(C2=NCON=C2c2ccc(Cl)cc2)cc1	30.5 µM (inactive)	15.7 µM (inactive)	14.5 µM (inactive)	16.6 µM (inactive)	14.5 µM (inactive)	16.3 µM (inactive)	20.1 µM (inactive)	14.5 µM (inactive)	18.7 µM (inactive)	16.8 µM (inactive)	19.9 µM (inactive)	18.4 µM (inactive)	–	14.5 µM (inactive)	19.5 µM (inactive)	21.6 µM (inactive)	19.4	19.7 µM (inactive)	–
COC(=O)C1CCOC(C)N1C(=O)OC(C)(C)C (stereo not drawn)	> 100 µM (inactive)	> 100 µM (inactive)	> 100 µM (inactive)	> 100 µM (inactive)	> 100 µM (inactive)	> 100 µM (inactive)	> 100 µM (inactive)	> 100 µM (inactive)	> 100 µM (inactive)	> 100 µM (inactive)	> 100 µM (inactive)	–	> 100 µM (inactive)	> 100 µM (inactive)	> 100 µM (inactive)	> 100 µM (inactive)	> 100	> 100 µM (inactive)	> 100 µM (inactive)
CC(=O)Nc1nc(C)c(S(=O)(=O)NC(=O)NC2NC(=O)NC2=O)s1 (stereo not drawn)	> 100 µM (inactive)	> 100 µM (inactive)	> 100 µM (inactive)	> 100 µM (inactive)	–	> 100 µM (inactive)	> 100 µM (inactive)	> 100 µM (inactive)	> 100 µM (inactive)	> 100 µM (inactive)	> 100 µM (inactive)	> 100 µM (inactive)	> 100 µM (inactive)	> 100 µM (inactive)	> 100 µM (inactive)	> 100 µM (inactive)	> 100	> 100 µM (inactive)	> 100 µM (inactive)
O=C(NCCC1CN(C(=O)OCc2ccccc2)c2ccccc21)OCc1ccccc1 (stereo not drawn)	> 100 µM (inactive)	> 100 µM (inactive)	> 100 µM (inactive)	> 100 µM (inactive)	–	> 100 µM (inactive)	> 100 µM (inactive)	–	> 100 µM (inactive)	> 100 µM (inactive)	> 100 µM (inactive)	> 100 µM (inactive)	> 100 µM (inactive)	> 100 µM (inactive)	> 100 µM (inactive)	> 100 µM (inactive)	> 100	96.8 µM (inactive)	90.6 µM (inactive)
